One assay addresses T1, canine cardiac PDE, CGI (Canis lupus familiaris, UniProt A0A8I3NYE0).
T1 construct: CANINE CARDIAC PDE; from tissue; host or cells: dog heart
T1 sequence (A0A8I3NYE0 1-1135): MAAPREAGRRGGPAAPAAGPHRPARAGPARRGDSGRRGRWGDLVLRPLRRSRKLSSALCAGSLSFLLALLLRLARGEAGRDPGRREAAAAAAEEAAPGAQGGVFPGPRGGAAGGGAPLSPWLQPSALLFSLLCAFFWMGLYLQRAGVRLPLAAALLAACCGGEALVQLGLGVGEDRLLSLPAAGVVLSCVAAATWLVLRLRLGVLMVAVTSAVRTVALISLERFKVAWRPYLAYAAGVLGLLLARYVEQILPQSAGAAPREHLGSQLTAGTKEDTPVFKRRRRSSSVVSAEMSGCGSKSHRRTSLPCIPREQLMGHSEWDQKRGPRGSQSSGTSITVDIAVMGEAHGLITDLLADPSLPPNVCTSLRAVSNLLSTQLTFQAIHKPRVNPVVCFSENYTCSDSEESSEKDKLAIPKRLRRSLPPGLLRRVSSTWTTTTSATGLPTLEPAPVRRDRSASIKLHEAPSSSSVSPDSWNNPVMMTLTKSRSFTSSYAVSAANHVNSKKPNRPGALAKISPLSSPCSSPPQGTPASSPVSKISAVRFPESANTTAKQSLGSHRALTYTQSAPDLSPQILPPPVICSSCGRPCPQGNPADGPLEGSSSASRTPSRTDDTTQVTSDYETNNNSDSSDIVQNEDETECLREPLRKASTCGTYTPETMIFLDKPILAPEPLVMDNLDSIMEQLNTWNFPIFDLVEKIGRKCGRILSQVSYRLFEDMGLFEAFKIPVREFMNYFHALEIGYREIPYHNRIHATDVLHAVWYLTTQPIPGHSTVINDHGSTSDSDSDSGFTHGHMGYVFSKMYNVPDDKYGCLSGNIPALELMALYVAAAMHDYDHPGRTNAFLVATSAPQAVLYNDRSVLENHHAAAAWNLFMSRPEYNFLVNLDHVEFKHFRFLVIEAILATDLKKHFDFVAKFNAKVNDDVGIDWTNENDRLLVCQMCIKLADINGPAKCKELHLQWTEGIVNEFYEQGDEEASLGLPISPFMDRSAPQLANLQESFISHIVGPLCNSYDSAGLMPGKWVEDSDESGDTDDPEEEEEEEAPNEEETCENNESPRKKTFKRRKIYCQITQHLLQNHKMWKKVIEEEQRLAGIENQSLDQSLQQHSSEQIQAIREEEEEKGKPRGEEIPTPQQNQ
The assay is described as follows: Canine cardiac PDE inhibition, CGI. It counts as biochemical. Conditions: n in table.

The subject of the next assay is canine cardiac PDE, CAM. The assay is described as follows: Canine cardiac PDE inhibition, CAM. The following applies: n in table. It counts as biochemical.
The test system of assay [1] is canine cardiac myofibrillar Ca++-dependent Mg++-ATPase. The assay is described as follows: Measurement of myofibrillar Ca++-dependent Mg++-ATPase activity on canine cardiac myofibrils. It counts as biochemical. The following applies: pH 7.0, 21° C.; for max (percent change of maximal ATPase activity): pCa=5.47. Here is the method: 1. Measurement of myofibrillar Ca++-dependent Mq++-ATPase activity The effect on myofibrillar Ca++sensitivity and on maximal activity of myofibrillar Ca++-dependent Mg++-ATPase was determined on canine cardiac myofibrils. (a) Contractile protein preparation Cardiac myofibrils free of membrane contaminants were prepared from left ventricular tissue of dog hearts using a modification of the method described by SOLARO et al, Biochem. Biophys. Acta, 245, 259-262, (1971). Before centrifugation, the heart homogenate was filtered through gauze. After Triton X-100 treatments, the myofibrillar fraction was washed once by resuspension and centrifugation in 10 volumes of 1 mM EGTA, […], 30 mM imidazole, 2 mM MgCl2, pH 7.0. The pellet was then washed three times in 10 volumes of the same buffer without EGTA. Before the last centrifugation, the suspension of myofibrils was filtered through a stainless steel sieve with 0.25 mm meshes. Myofibrils were kept in pellet overnight. Before use, the pellet was suspended in a small amount of buffer, the protein concentration was determined by the method of BRADFORD M., Anal. Biochem., 1976, 72, 248 and adjusted in order to have a concentration between 6 and 7 mg/ml. (b) Myofibrillar ATPase activity Ca++-dependent myfibrillar ATPase activity was determined at 21° C., pH 7.0, by measuring the rate of release of inorganic phosphate. All assays were performed within 24hrs. of final purification, using the method described by SOLARO and […]., 51. 290-4,(1982). Reaction mixtures (4 ml) containing 0.6-0.7 mg/ml myofibrillar protein, 80mM KCl, 20 mM imidazole, 3 mM MgCl2, 1 mM EGTA, the desired amount of CaCl2, and the indicated concentration of drug or appropriate vehicle were preincubated for 6 min. prior to assay. The amount of CaCl2 was varied between 0 and 0.9 mM and the pCa (-log free Ca++) computed using 2.514×10^6 M^-1 as the apparent affinity of Ca++for EGTA at pH 7.0. Reactions were initiated by the addition of Na2 ATP to final concentration of 2 mM. After an incubation period of 12 min., reactions were quenched by the addition of an equal volume of ice-cold 10% trichloroacetic acid. The protein was pelleted by centrifugation (2000 g, 15 min.) and Pi was assayed in the supernatant fraction using a modification of the method described by LANZETTA et al, Anal. Biochem., 100, 95-97, (1979). The following solutions were prepared: (1) 3.7% ammonium heptamolybdate in 0.12 N H2 SO4 (2) 0.074% malachite green oxalate in 1% polyvinylic alcohol. The colour reagent was prepared by mixing an equal volume of solution (1) and (2) 15 min. before the assay. For the assay, 1,700 μl of 1% H2 SO4 and 1 ml of colour reagent were added to 100 μl of sample. Colour development occurred at room temperature for 30 min. and was quenched by the addition of 200 μl of 1M tri-potassium citrate. The absorbance was measured at 620 millimicrons. The effect of each compound, tested at the indicated concentration, on the relation between pCa and percent activation was determined taking 100% for the maximum ATPase activity obrained with vehicle alone. The effect on Ca++sensitivity was quantified by measuring the shift of the pCa giving 50% of the maximal control ATPase activity. The effect on maximal ATPase activity was expressed as the percent change of ATPase activity for pCa=5.47. Mean effects on myofibrillar ATPase activity were obtained from 1 to 5 preparations, (compounds tested at 2×10^-4 M).

The test system of a further assay is anaesthetised dog. The experiment in a line: Cardiotonic activity in the dog (haemodynamics). It counts as in vivo, dog (male Beagle). Conditions: i.v.

The structures appear in SMILES notation. Counter-ions that a name gives are not always drawn.

As a reminder, the IC50 is the concentration at which inhibition is half-maximal. Lower therefore signals greater potency.

On to `CC1SC(=O)NN=C1c1ccc2c(c1)C(=Nc1ccccc1)C(=O)N2` (centres unmarked) [Example 6, 1,3-6-Dihydro-5-(3,6-dihydro-6-methyl-2-oxo-2H-1,3,4-thiadiazin-5-yl)-3-phenylimino-2H-indol-2-one], for which the IC50 was 1200 nM at canine cardiac PDE, CGI and greater than 300 µM in the assay with canine cardiac PDE, CAM. In assay [1] (30 μM), the “max (percent change of maximal ATPase activity)” value is given as -2 ± 6%. For the same compound, the “pCa (shift of the pCa giving 50% of the maximal control ATPase activity; Ca++ sensitivity)” value in assay [1] (30 μM) was “+0.38 ± 0.06”.
`CC1SC(=O)NN=C1c1ccc2c(c1)C(=NNC(=N)N)C(=O)N2` (centres unmarked) [Example 12, 5-(3,6-Dihydro-6-methyl-2-oxo-2H-1,3,4-thiadiazin-5-yl) -1H-indole-2,3-dione 3-[2-(aminomethanimino)hydrazone]] displayed an IC50 against canine cardiac PDE, CGI of 1800 nM. In addition, in assay [1] (30 μM), the “max (percent change of maximal ATPase activity)” value is recorded as -1 ± 2% and the “pCa (shift of the pCa giving 50% of the maximal control ATPase activity; Ca++ sensitivity)” value is given as “+0.08 ± 0.02”.
Turning to `CC1SC(=O)NN=C1c1ccc2c(c1)C(=NN)C(=O)N2` (centres unmarked) [Example 7, 5-(3,6-Dihydro-6-methyl-2-oxo-2H-1,3,4-thiadiazin-5-yl)-1H -indole-2,3-dione 3-hydrazone], at canine cardiac PDE, CGI, it took 2300 nM to reach half-maximal inhibition (IC50). The same compound came in with a half-inhibitory concentration (IC50) in the assay on canine cardiac PDE, CAM of 42 µM. For the same compound, in assay [1] (30 μM), the “max (percent change of maximal ATPase activity)” value is on record as -3 ± 5% and the “pCa (shift of the pCa giving 50% of the maximal control ATPase activity; Ca++ sensitivity)” value is recorded as “+0.17 ± 0.02”.
In the same order, the values of `CC1SC(=O)NN=C1c1ccc2c(c1)C(=C(C#N)C#N)C(=O)N2` (centres unmarked) [Example 9, [5-(3,6-Dihydro-6-methyl-2-oxo-2H-1,3,4-thiadiazin-5-yl) -1,2-dihydro-2-oxo-3H-indol-3-ylidene]-propane-dinitrile] are 2100 nM, 31 µM, -20 ± 3% and “+0.05 ± 0.07”.
Take `CC1SC(=O)NN=C1c1ccc2c(c1)C(=NNC1=NCCN1)C(=O)N2` (centres unmarked) [Example 13]: the IC50 at canine cardiac PDE, CGI came out at 14000 nM. In assay [1] (30 μM), the “max (percent change of maximal ATPase activity)” value is reported as 2 ± 2% and the “pCa (shift of the pCa giving 50% of the maximal control ATPase activity; Ca++ sensitivity)” value is recorded as “+0.07 ± 0.02”.
Take `CC1SC(=O)NN=C1c1ccc2c(c1)C(=NNc1ccccc1C(F)(F)F)C(=O)N2` (centres unmarked) [Example 31, 5-(3,6-Dihydro-6-methyl-2-oxo-2H-1,3,4-thiadiazin-5-yl) -1H-indole-2,3-dione 3-[(2-trifluoromethyl)phenylhydrazone]]: in the assay on anaesthetised dog (0.01 mg/kg), the AoBF result is “+11 ± 5%”, the AoBP is on record as -8 ± 1%, the H.R. entry is recorded as “+8 ± 2%” and the “dP/dt Max” value is reported as “+9 ± 3%”. In the assay with anaesthetised dog (0.03 mg/kg), the AoBF result was “+19 ± 8%”, the AoBP is -15 ± 1%, the H.R. entry is given as “+30 ± 4%” and the “dP/dt Max” value is reported as “+44 ± 13%”. For the same compound, in the assay with anaesthetised dog (0.1 mg/kg), the AoBF entry is “+13 ± 6%”, the AoBP is recorded as -23 ± 2%, the H.R. result was “+39 ± 6%” and the “dP/dt Max” value was “+93 ± 13%”. Besides, in assay [1] (30 μM), the “max (percent change of maximal ATPase activity)” value is listed as 26 ± 7% and the “pCa (shift of the pCa giving 50% of the maximal control ATPase activity; Ca++ sensitivity)” value is reported as “+0.43 ± 0.04”.
In turn, `CC1SC(=O)NN=C1c1ccc2c(c1)C(=Cc1ccccc1)C(=O)N2` (centres unmarked) [Example 10, 1,3-Dihydro-5-(3,6-dihydro-6-methyl-2-oxo-2H-1,3,4-thiadiazin-5-yl)-3-phenylmethylene-2H-indol-2-one] returned an IC50 at canine cardiac PDE, CGI of 350 nM. Besides, in the assay with canine cardiac PDE, CAM, half-maximal inhibition (IC50) was put at 20 µM. Further, in assay [1] (30 μM), the “max (percent change of maximal ATPase activity)” value was -13 ± 3% and the “pCa (shift of the pCa giving 50% of the maximal control ATPase activity; Ca++ sensitivity)” value is recorded as “+0.43 ± 0.07”.
For the compound `CC1SC(=O)NN=C1c1ccc2c(c1)C(=NNC(N)=S)C(=O)N2` (centres unmarked) [Example 4, 2-[2,3-Dihydro-5-(3,6-dihydro-6-methyl-2-oxo-2H-1,3,4-thiadiazin-5-yl)-2-oxo-1H-indol-3-ylidene]-hydrazine carbothioamide], the IC50 against canine cardiac PDE, CGI was 440 nM; in the assay on canine cardiac PDE, CAM, greater than 300 µM.
Consider `Cc1ccc(NN=C2C(=O)Nc3ccc(C4=NNC(=O)SC4C)cc32)cc1` (centres unmarked) [Example 21, 5-(3,6-Dihydro-6-methyl-2-oxo-2H-1,3,4-thiadiazin-5-yl) -1H-indole-2,3-dione 3-[(4-methyl)phenylhydrazone]], for which the results for the “max (percent change of maximal ATPase activity)” value in assay [1] (10 μM) and in assay [1] (30 μM) were 41 ± 2% and -42 ± 7%, respectively. In addition, the “pCa (shift of the pCa giving 50% of the maximal control ATPase activity; Ca++ sensitivity)” value in assay [1] (10 μM) is recorded as 1.07 ± 0.02; in assay [1] (30 μM), “+1.30 ± 0.00”.
With `CC1SC(=O)NN=C1c1ccc2c(c1)C(=NNc1ccc(C(F)(F)F)cc1)C(=O)N2` (centres unmarked) [Example 42, 5-(3,6-Dihydro-6-methyl-2-oxo-2H-1,3,4-thiadiazin-5-yl) -1H-indole-2,3-dione 3-[4-trifluoromethylphenylhydrazone]], in assay [1] (30 μM), the “max (percent change of maximal ATPase activity)” value is recorded as 11 ± 4% and the “pCa (shift of the pCa giving 50% of the maximal control ATPase activity; Ca++ sensitivity)” value is given as “+0.30 ± 0.02”.
Regarding `CC1SC(=O)N(C)N=C1c1ccc2c(c1)C(=NNc1ccccc1)C(=O)N2` (centres unmarked) [Example 41], in assay [1] (30 μM), the “max (percent change of maximal ATPase activity)” value is 7 ± 2% and the “pCa (shift of the pCa giving 50% of the maximal control ATPase activity; Ca++ sensitivity)” value is listed as “+0.11 ± 0.04”.
For `CC1SC(=O)NN=C1c1ccc2c(c1)C(=NNC(=O)c1cccnc1)C(=O)N2` (centres unmarked) [Example 38, 3-Pyridinecarboxylic acid, 2-[2,3-dihydro-5-(3,6-dihydro-6-methyl-2-oxo-2H-1,3,4-thiadiazin-5-yl)-2-oxo-1H-indol-3-ylidenelhydrazide hydrochloride], the “max (percent change of maximal ATPase activity)” value is given as 34 ± 7% in assay [1] (10 μM) and 34 ± 5% in assay [1] (30 μM). Besides, the “pCa (shift of the pCa giving 50% of the maximal control ATPase activity; Ca++ sensitivity)” value is recorded as 1.10 ± 0.02 in assay [1] (10 μM) and “+1.05 ± 0.06” in assay [1] (30 μM).

The record behind these values is patent US5051417A, “Indolythiadiazines for treating heart failure” (Les Laboratoires Beecham S.A., priority 1988, dated 1991).
